Test results as given in ChEMBL document CHEMBL1201862, “PubChem BioAssay data set” (2004).
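Cells were grown in 96-well plates and exposed to each compound for 48 hours at five concentrations; endpoints were interpolated linearly between bracketing concentrations, or set to the highest concentration if not reached. GI50: concentration for 50% inhibition of growth.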 Calls of active or inactive are those of the source. Cut-off read from the data, not from the text of the source: active = GI50 up to about 1.1 µM and inactive = higher.

How the values were obtained:
Experiment in all cases: growth of human tumour cells (NCI), 48 h
786-0 = tested on: 786-0
CAKI-1 = tested on: CAKI-1
DU-145 = tested on: DU-145
EKVX = tested on: EKVX
HL-60 = tested on: HL-60
Hs-578T = tested on: Hs-578T
KM12 = tested on: KM12
MDA-MB-231 = tested on: MDA-MB-231
Malme-3M = tested on: Malme-3M
OVCAR-3 = tested on: OVCAR-3
OVCAR-5 = tested on: OVCAR-5
SF-268 = tested on: SF-268
SK-MEL-2 = tested on: SK-MEL-2
SN12C = tested on: SN12C
SNB-19 = tested on: SNB-19
SNB-75 = tested on: SNB-75
TK-10 = tested on: TK-10
U-251 = tested on: U-251
UACC-257 = tested on: UACC-257

Compound	GI50 (786-0)	GI50 (CAKI-1)	GI50 (DU-145)	GI50 (EKVX)	GI50 (HL-60)	GI50 (Hs-578T)	GI50 (KM12)	GI50 (MDA-MB-231)	GI50 (Malme-3M)	GI50 (OVCAR-3)	GI50 (OVCAR-5)	GI50 (SF-268)	GI50 (SK-MEL-2)	GI50 (SN12C)	GI50 (SNB-19)	GI50 (SNB-75)	GI50 (TK-10)	GI50 (U-251)	GI50 (UACC-257)
O=C(O)CN(CC(=O)O)c1ccccc1	> 100 µM (inactive)	> 100 µM (inactive)	> 100 µM (inactive)	> 100 µM (inactive)	44.5 µM (inactive)	80 µM (inactive)	60.1 µM (inactive)	92.3 µM (inactive)	45.8 µM (inactive)	75.2 µM (inactive)	> 100 µM (inactive)	> 100 µM (inactive)	33.2 µM (inactive)	> 100 µM (inactive)	> 100 µM (inactive)	> 100 µM (inactive)	> 100 µM (inactive)	74.5 µM (inactive)	18.2 µM (inactive)
CC1(C)C(=O)C2(OS(=O)(=O)C(F)(F)F)CCC1C2 (configuration not stated)	> 100 µM (inactive)	> 100 µM (inactive)	> 100 µM (inactive)	> 100 µM (inactive)	> 100 µM (inactive)	> 100 µM (inactive)	> 100 µM (inactive)	> 100 µM (inactive)	> 100 µM (inactive)	> 100 µM (inactive)	> 100 µM (inactive)	> 100 µM (inactive)	> 100 µM (inactive)	> 100 µM (inactive)	> 100 µM (inactive)	> 100 µM (inactive)	> 100 µM (inactive)	> 100 µM (inactive)	> 100 µM (inactive)
CC(C(O)Cc1ccccc1)N(C)/N=N/c1ccc([N+](=O)[O-])cc1 (configuration not stated)	18.5 µM (inactive)	21.9 µM (inactive)	27 µM (inactive)	22.9 µM (inactive)	84.1 µM (inactive)	24 µM (inactive)	21.7 µM (inactive)	14.6 µM (inactive)	22.2 µM (inactive)	14.8 µM (inactive)	25.5 µM (inactive)	21 µM (inactive)	16.9 µM (inactive)	22 µM (inactive)	39.4 µM (inactive)	23.1 µM (inactive)	22.5 µM (inactive)	17.7 µM (inactive)	21.4 µM (inactive)
COC1(CC[C@@H](C)COC2OC(CO)C(O)C(O)C2O)O[C@H]2C[C@H]3[C@@H]4CC=C5C[C@@H](OC6OC(CO)C(OC7OC(C)C(O)C(O)C7O)C(O)C6OC6OC(C)C(O)C(O)C6O)CC[C@]5(C)[C@H]4CC[C@]3(C)[C@H]2[C@@H]1C (some centres not stated)	2.02 µM (inactive)	1.53 µM (inactive)	2.28 µM (inactive)	22.1 µM (inactive)	18.2 µM (inactive)	2.55 µM (inactive)	2.1 µM (inactive)	1.6 µM (inactive)	3.01 µM (inactive)	2.36 µM (inactive)	4.41 µM (inactive)	3.18 µM (inactive)	4.39 µM (inactive)	5.85 µM (inactive)	3.17 µM (inactive)	2.06 µM (inactive)	17.2 µM (inactive)	1.81 µM (inactive)	3.51 µM (inactive)
CC(=O)C(C(=O)c1ccc(C)cc1)[C@@H]1OC(C)(C)O[C@@H]1[C@H]1COC(C)(C)O1 (some centres not stated)	6.4 µM (inactive)	21.5 µM (inactive)	7.74 µM (inactive)	23.9 µM (inactive)	1.67 µM (inactive)	3.84 µM (inactive)	4.02 µM (inactive)	10.5 µM (inactive)	15.9 µM (inactive)	7.66 µM (inactive)	40.9 µM (inactive)	9.23 µM (inactive)	8.99 µM (inactive)	3.97 µM (inactive)	15.7 µM (inactive)	13.4 µM (inactive)	30.3 µM (inactive)	6.41 µM (inactive)	12.4 µM (inactive)
C=C1C(=O)OC2/C=C(\CO)CC/C=C(\CO)CC(OC(=O)C(C)C)C12 (configuration not stated)	5.52 µM (inactive)	1.9 µM (inactive)	12.7 µM (inactive)	16.4 µM (inactive)	2.87 µM (inactive)	19.9 µM (inactive)	18.2 µM (inactive)	20.1 µM (inactive)	2.08 µM (inactive)	11.6 µM (inactive)	15.9 µM (inactive)	13.9 µM (inactive)	16.5 µM (inactive)	13.3 µM (inactive)	21.5 µM (inactive)	16.5 µM (inactive)	3.94 µM (inactive)	18.1 µM (inactive)	12.2 µM (inactive)
O=C1CCC2(CC1CCSc1ccccc1)OCCO2 (configuration not stated)	> 100 µM (inactive)	> 100 µM (inactive)	> 100 µM (inactive)	> 100 µM (inactive)	95.1 µM (inactive)	> 100 µM (inactive)	> 100 µM (inactive)	> 100 µM (inactive)	> 100 µM (inactive)	> 100 µM (inactive)	> 100 µM (inactive)	> 100 µM (inactive)	> 100 µM (inactive)	–	> 100 µM (inactive)	> 100 µM (inactive)	> 100 µM (inactive)	> 100 µM (inactive)	> 100 µM (inactive)
CC(O)C(O)C(O)C(/C=N\Nc1ccccc1)=N/Nc1ccccc1 (configuration not stated)	14.2 µM (inactive)	2.18 µM (inactive)	15.1 µM (inactive)	12.1 µM (inactive)	12.6 µM (inactive)	11 µM (inactive)	4.7 µM (inactive)	12.3 µM (inactive)	20 µM (inactive)	8.55 µM (inactive)	13.9 µM (inactive)	10.2 µM (inactive)	8.63 µM (inactive)	16 µM (inactive)	15.7 µM (inactive)	16.7 µM (inactive)	12.6 µM (inactive)	13.9 µM (inactive)	–
O=[N+]([O-])c1ccc(-c2nnc(C34CC5CC(CC(C5)C3)C4)o2)cc1	> 100 µM (inactive)	> 100 µM (inactive)	> 100 µM (inactive)	> 100 µM (inactive)	> 100 µM (inactive)	> 100 µM (inactive)	> 100 µM (inactive)	> 100 µM (inactive)	> 100 µM (inactive)	> 100 µM (inactive)	> 100 µM (inactive)	> 100 µM (inactive)	> 100 µM (inactive)	> 100 µM (inactive)	> 100 µM (inactive)	> 100 µM (inactive)	> 100 µM (inactive)	> 100 µM (inactive)	–
CSc1ccccc1P(CCP(c1ccccc1SC)c1ccccc1SC)c1ccccc1SC	15.6 µM (inactive)	> 84.5 µM (inactive)	54.5 µM (inactive)	19.6 µM (inactive)	0.4 µM (active)	28.7 µM (inactive)	18.6 µM (inactive)	8.81 µM (inactive)	29.9 µM (inactive)	0.543 µM (active)	43.9 µM (inactive)	36.4 µM (inactive)	53.3 µM (inactive)	38.3 µM (inactive)	35.4 µM (inactive)	13 µM (inactive)	> 69 µM (inactive)	4.2 µM (inactive)	13.5 µM (inactive)
